Format in all cases: cell-based
Test [1] deals with Wnt activity (Wnt-responsive human Sp5 promoter, TCF/LEF binding sites) in SW480 colon carcinoma cells. In words: Wnt activity screening assay: Sp5-Luc luciferase reporter gene in SW480 cells. The note with it: 10-point dose-response from 10 μM, incubated overnight. The source says: The screening assay for Wnt activity is described as follows. Reporter cell lines can be generated by stably transducing cancer cell lines (e.g., colon cancer) or primary cells (e.g., IEC-6 intestinal cells) with a lentiviral construct that includes a Wnt-responsive promoter driving expression of the firefly luciferase gene.
SW480 colon carcinoma cells were transduced with a lentiviral vector expressing luciferase with a human Sp5 promoter consisting of a sequence of eight TCF/LEF binding sites. SW480 cells stably expressing the Sp5-Luc reporter gene and a hygromycin resistance gene were selected by treatment with 150 μg/mL of hygromycin for 7 days. These stably transduced SW480 cells were expanded in cell culture and used for all further screening activities. Each compound was dissolved in DMSO as a 10 mM stock and used to prepare compound source plates. Serial dilution (1:3, 10-point dose-response curves starting from 10 μM) and compound transfer was performed using the ECHO 550 (Labcyte, Sunnyvale, Calif.) into 384-well white solid bottom assay plates (Greiner Bio-One) with appropriate DMSO backfill for a final DMSO concentration of 0.1%. For Sp5-Luc reporter gene assays, the cells were plated at 4,000 cells/well in 384-well plates with medium containing 1% fetal bovine serum and incubated overnight at 37° C. and 5% CO2. Following incubation, 20 μl of BrightGlo luminescence reagent (Promega) was added to each well of the 384-well assay plates. The plates were placed on an orbital shaker for 2 min and then luminescence was quantified using the Envision (Perkin Elmer) plate reader. Readings were normalized to DMSO only treated cells, and normalized activities were utilized for EC50 calculations using the dose-response log (inhibitor) vs. response-variable slope (four parameters) nonlinear regression feature available in GraphPad Prism 5.0 (or Dotmatics). For EC50 of >10 μM, the percent inhibition at 10 μM is provided.
(In general: In a reporter assay the amount or activity of a reporter protein is the signal.)

In test [2] the test system is Primary human fibroblasts derived from IPF patients (LL29 cells) treated with TGF-β1. In words: Inhibition of the fibrotic process: αSMA staining in TGF-β1 treated fibroblasts. The note with it: Fibroblast, 96 h, LL29 fibroblasts treated with TGF-β1, 4 days. From the text:
Representative compounds were screened using primary human fibroblasts (derived from IPF patients) treated with TGF-β1 to determine their ability to inhibit the fibrotic process.
Primary human fibroblasts derived from IPF patients (LL29 cells) [^1Xiaoqiu Liu, et. al., “Fibrotic Lung Fibroblasts Show Blunted Inhibition by cAMP Due to Deficient cAMP Response Element-Binding Protein Phosphorylation”, Journal of Pharmacology and Experimental Therapeutics (2005), 315(2), 678-687; ^2Watts, K. L., et. al., “RhoA signaling modulates cyclin D1 expression in human lung fibroblasts; implications for idiopathic pulmonary fibrosis”, Respiratory Research (2006), 7(1), 88] were obtained from American Type Culture Collection (ATCC) and expanded in F12 medium supplemented with 15% Fetal Bovine Serum and Penicillin/Streptomycin.
Each compound was dissolved in DMSO as a 10 mM stock and used to prepare compound source plates. Serial dilution (1:2, 11-point dose-response curves from 10 μM to 1.87 nM) and compound transfer was performed using the ECHO 550 (Labcyte, Sunnyvale, Calif.) into 384-well clear bottom assay plates (Greiner Bio-One) with appropriate DMSO backfill for a final DMSO concentration of 0.1%. LL29 cells are plated at 1,500 cells/well in 80 μL/well F12 medium supplemented with 1% Fetal Bovine Serum. One hour after addition of the cells, TGF-β1 (Peprotech; 20 ng/mL) was added to the plates to induce fibrosis (ref. 1 and 2 above). Wells treated with TGF-β1 and containing DMSO were used as controls. Cells were incubated at 37° C. and 5% CO2 for 4 days. Following incubation for 4 days, SYTOX green nucleic acid stain (Life Technologies [Thermo Fisher Scientific]) was added to the wells at a final concentration of 1 μM and incubated at room temperature for 30 min. Cells were then fixed using 4% formaldehyde (Electron Microscopy Sciences), washed 3 times with PBS followed by blocking and permeabilization using 3% Bovine Serum Albumin (BSA; Sigma) and 0.3% Triton X-100 (Sigma) in PBS. Cells were then stained with antibody specific to α-smooth muscle actin (αSMA; Abcam) (ref. 1 and 2 above) in 3% Bovine Serum Albumin (BSA; Sigma) and 0.3% Triton X-100 (Sigma) in PBS, and incubated overnight at 4° C. Cells were then washed 3 times with PBS, followed by incubation with Alexa Flor-647 conjugated secondary antibody (Life Technologies [Thermo Fisher Scientific]) and DAPI at room temperature for 1 hour. Cells were then washed 3 times with PBS and plates were sealed for imaging. αSMA staining was imaged by excitation at 630 nm and emission at 665 nm and quantified using the Compartmental Analysis program on the CellInsight CX5 (Thermo Scientific). Dead or apoptotic cells were excluded from analysis based on positive SYTOX green staining. % of total cells positive for αSMA were counted in each well and normalized to the average of 11 wells treated with TGF-β1 on the same plate using Dotmatics' Studies Software. The normalized averages (fold change over untreated) of 3 replicate wells for each compound concentration were used to create dose-responses curves and EC50 values were calculated using non-linear regression curve fit in the Dotmatics' Studies Software. For EC50 of >10 μM, the percent inhibition at 10 μM is provided.

A further test has as its system SW480 colon cancer cells. In words: Cell viability assay (CellTiter-Blue), four days. The settings on record: Homo sapiens, 96 h, CellTiter-Blue cell viability. How it is done: Representative compounds were screened using the following assay procedure to assess the effect on cell viability as described below.
Each compound was dissolved in DMSO as a 10 mM stock and used to prepare compound source plates. Serial dilution (1:3, 8-point dose-response curves from 10 μM to 0.0045 μM) and compound transfer was performed using the ECHO 550 (Labcyte, Sunnyvale, Calif.) into 96-well clear bottom, black-walled plates (Corning-Costar).
Approximately 2×10^3 SW480 colon cancer cells were seeded into each well and allowed to incubate in the presence or absence of compound for four days at 37° C./5% CO2. Eight replicates of DMSO-treated cells served as controls and cells treated with compound were performed in duplicate.
After incubation, 20 μL of CellTiter-Blue (Promega) was added to each well allowed to incubate for approximately 3 hours. This reagent was a buffered solution which contains resazurin, metabolically active cells were able to reduce rezarurin (blue) into resorufin (pink) which was highly fluorescent. This measured fluorescence was used as a readout for cell viability.
After incubation, the plates were read at Ex 560 nm Em 590 nm (Cytation 3, BioTek). Dose-response curves were generated and EC50 concentration values were calculated using non-linear regression curve fit in the GraphPad Prism (San Diego, Calif.) or Dotmatics' Studies Software (Bishops Stortford, UK). For EC50 of >10 μM, the percent inhibition at 10 μM is provided.
(In general: The colour change of resazurin is a common sign of viable cells or microbes.)

Test [3] has as its system IL-6 in human monocyte cell line (THP-1 cells). The test is described as follows: IL-6 inhibition in LPS-stimulated THP-1 cells (HTRF). The note with it: IL-6 in LPS-stimulated THP-1 cells, HTRF. How it is done:
Human monocyte cell line (THP-1 cells; Catalog # TIB-202, ATCC, Manassas, Va.) were cultured in Roswell Park Memorial Institute (RPMI) 1640 Medium (Catalog #21870-100, Buffalo, N.Y.) with 1% L-glutamine, 1% HEPES, 1% Sodium Pyruvate, 2% Sodium Bicarbonate supplemented with 100 units/mL penicillin, 50 μg/mL streptomycin, 2-mercaptoethanol (0.05 mM) [basal medium] and 10% fetal bovine serum (Catalog #16140089, Life Technologies, Carlsbad, Calif.) at 37° C. and 5% CO2.
THP-1 cells were cultured in basal media with 1% FBS for 24 hours before the start of the assay. Each compound was dissolved in DMSO as a 10 mM stock and used to prepare compound source plates. Serial dilution (1:3, 10-point dose-response curves starting from 10 μM) and compound transfer was performed using the ECHO 550 (Labcyte, Sunnyvale, Calif.) into 384-well white low volume assay plates (Greiner Bio-One) with appropriate DMSO backfill for a final DMSO concentration of 0.1%. THP-1 cells were plated at 5000 cells/well in the 384-well plates and incubated at 37° C. for 2 h. 500 ng/mL of LPS was added after 2 hours and cells were incubated for another 22 hours at 37° C. Plates were spun in a centrifuge for 1 minute at […] and a mixture of anti-IL6 XL665, and anti-IL6 Cryptate diluted in reconstitution buffer (Cisbio Inc.) was added to each well. Following incubation for 3 hrs at room temperature, Homogeneous Time-Resolved Fluorescence (HTRF) was measured using the Envision (Perkin Elmer) at 665 nm and […]. The ratio of fluorescence at 665 nm to 620 nm was used as a readout for IL6 quantification. All samples were processed in duplicate. Readings were normalized to DMSO treated cells and normalized activities were utilized for EC50 calculations using the dose-response log (inhibitor) vs. response-variable slope (four parameters) nonlinear regression feature available in GraphPad Prism 5.0 (or Dotmatics). For EC50 of >10 μM, the percent inhibition at 10 μM is provided.
Background: Time-resolved FRET reads energy transfer from a long-lived donor to a nearby acceptor.

Broadly, the EC50 is the concentration needed to bring the measured effect to its halfway point. A lower EC50 goes with greater potency. `COc1cncc(-c2ccc3[nH]nc(-c4nc5c(N6CCCCC6)nccc5[nH]4)c3n2)c1` [Compound 612, 5-(5-Methoxypyridin-3-yl)-3-(4-(piperidin-1-yl)-1H-imidazo[4,5-c]pyridin-2-yl)-1H-pyrazolo[4,3-b]pyridine]: the half-maximal effective concentration (EC50) was 3.23 µM in test [1], 2.92 µM in test [2], 3.99 µM in the test with SW480 colon cancer cells and 3.81 µM in test [3].

In the case of `C1=C(c2ccc3[nH]nc(-c4nc5c(-c6ccc7c(c6)OCO7)nccc5[nH]4)c3n2)CCNC1` [Compound 1109, 3-(4-(Benzo[d][1,3]dioxol-5-yl)-1H-imidazo[4,5-c]pyridin-2-yl)-5-(1,2,3,6-tetrahydropyridin-4-yl)-1H-pyrazolo[4,3-b]pyridine], the EC50 is 0.652 µM in test [1], 3.85 µM in test [2], 3.41 µM with SW480 colon cancer cells and 0.154 µM in test [3].

Turning to `CN1CCN(c2nccc3[nH]c(-c4n[nH]c5ccc(-c6cncc(OCc7ccccc7)c6)nc45)nc23)CC1` [Compound 646, 5-(5-(Benzyloxy)pyridin-3-yl)-3-(4-(4-methylpiperazin-1-yl)-1H-imidazo[4,5-c]pyridin-2-yl)-1H-pyrazolo[4,3-b]pyridine], the EC50 turned out to be 3.85 µM in test [1], 3.98 µM in test [2], 3.13 µM in the test with SW480 colon cancer cells and 1.49 µM in test [3].

Turning to `c1csc(-c2nccc3[nH]c(-c4n[nH]c5ccc(-c6ccncc6)nc45)nc23)c1` [Compound 354, 5-(Pyridin-4-yl)-3-(4-(thiophen-2-yl)-1H-imidazo[4,5-c]pyridin-2-yl)-1H-pyrazolo[4,3-b]pyridine], the EC50 in test [1] was determined as 1.07 µM; in test [2], 0.792 µM; with SW480 colon cancer cells, 1.05 µM; in test [3] it was 9.11 µM.

The record behind these values is patent US10195185B2, “3-(1H-imidazo[4,5-C]pyridin-2-yl)-1H-pyrazolo[4,3-B]pyridines and therapeutic uses thereof” (Samumed, LLC, priority 2015, dated 2019).
